According to patent publication US10160747B2, “Compounds and methods for kinase modulation, and indications therefor” (Plexxikon Inc., priority 2016, dated 2018):

Legend:
[1] = tested on: MOLM-14 D835Y (endogenous FLT3 ITD and transfected FLT3 D835Y); assay: MOLM-14 D835Y cell proliferation assay (CellTiter-Glo); format: cell-based; conditions: Homo sapiens, MOLM-14, 72 h; 3 d growth, GMean
Outline: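 Three-day proliferation at 37 °C/5% CO2 of FLT3-ITD MOLM-14 lines with D835Y or F691L mutation, seeded 1×10^4 per well. Compounds at eight points, top 1 μM final, 0.2% DMSO. ATP luminescence (CellTiter-Glo) gives IC50.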

[2] = target: T1, BA/F3-FLT3-ITD + D835Y (Homo sapiens, UniProt P36888, D835Y, cells depend on it, form not given); assay: Engineered BA/F3 cell growth assay, FLT3 ITD/D835Y; format: cell-based, murine; conditions: 3 d growth
T1 sequence (P36888 with tags, fused parts or gaps INS600HVDFREYEYD/D835Y): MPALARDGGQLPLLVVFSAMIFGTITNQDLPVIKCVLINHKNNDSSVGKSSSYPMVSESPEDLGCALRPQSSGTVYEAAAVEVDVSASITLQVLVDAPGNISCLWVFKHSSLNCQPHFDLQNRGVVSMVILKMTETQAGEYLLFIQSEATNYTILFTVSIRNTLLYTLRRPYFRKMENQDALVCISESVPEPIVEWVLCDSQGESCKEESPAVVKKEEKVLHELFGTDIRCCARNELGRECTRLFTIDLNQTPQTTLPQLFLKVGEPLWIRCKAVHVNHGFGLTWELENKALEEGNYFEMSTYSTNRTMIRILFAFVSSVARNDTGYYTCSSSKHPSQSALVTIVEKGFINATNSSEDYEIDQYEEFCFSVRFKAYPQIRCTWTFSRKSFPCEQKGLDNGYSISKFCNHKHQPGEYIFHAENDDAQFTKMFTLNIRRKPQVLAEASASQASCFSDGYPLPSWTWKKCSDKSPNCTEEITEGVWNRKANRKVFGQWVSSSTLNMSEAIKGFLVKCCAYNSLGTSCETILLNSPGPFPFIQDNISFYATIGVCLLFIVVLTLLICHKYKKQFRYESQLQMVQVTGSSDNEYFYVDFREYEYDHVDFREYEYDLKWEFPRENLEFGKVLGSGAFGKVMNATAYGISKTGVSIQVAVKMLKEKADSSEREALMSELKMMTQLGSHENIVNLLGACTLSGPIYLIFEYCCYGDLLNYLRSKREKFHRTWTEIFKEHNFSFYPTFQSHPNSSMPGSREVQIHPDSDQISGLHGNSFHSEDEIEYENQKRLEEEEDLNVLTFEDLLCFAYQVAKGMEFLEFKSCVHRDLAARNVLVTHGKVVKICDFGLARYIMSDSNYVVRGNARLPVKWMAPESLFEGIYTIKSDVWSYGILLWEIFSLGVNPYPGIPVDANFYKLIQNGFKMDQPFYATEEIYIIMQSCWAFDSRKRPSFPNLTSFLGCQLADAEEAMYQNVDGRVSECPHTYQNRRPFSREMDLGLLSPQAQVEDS
Outline: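 Murine Ba/F3 cells transfected with full-length FLT3 ITD/D835Y, grown without IL-3 so growth depends on FLT3. Seeded at 1×10^4 cells/well, 8-point 1:3 series to 1 μM top (0.2% DMSO), 3 days at 37 °C. CellTiter-Glo luminescence (ATP) versus concentration gave IC50.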

Cc1n[nH]c2ncc(-c3cc(F)c(CC(=O)Nc4cncc(C(F)(F)F)c4)cc3F)cc12 [Compound P-0173, 2-[2,5-difluoro-4-(3-methyl-1H-pyrazolo[3,4-b]pyridin-5-yl)phenyl]-N-[5-(trifluoromethyl)-3-pyridyl]acetamide]
IC50 [1]: 0.0001 to 10 µM
GI50 [2]: 0.0001 to 10 µM

Cn1cc(Nc2ncc(-c3ccc(CC(=O)Nc4ccnc(S(C)(=O)=O)c4)cc3)cn2)cn1 [Compound P-0154, 2-[4-[2-[(1-methylpyrazol-4-yl)amino]pyrimidin-5-yl]phenyl]-N-(2-methylsulfonyl-4-pyridyl)acetamide]
IC50 [1]: 0.0001 to 10 µM
GI50 [2]: 0.0001 to 10 µM

Cn1cnc(Nc2ncc(-c3ccc(CC(=O)Nc4cc(C(F)(F)F)ccn4)c(F)c3)cn2)c1 [Compound P-0096, 2-[2-fluoro-4-[2-[(1-methylimidazol-4-yl)amino]pyrimidin-5-yl]phenyl]-N-[4-(trifluoromethyl)-2-pyridyl]acetamide]
IC50 [1]: 0.0001 to 10 µM
GI50 [2]: 0.0001 to 10 µM

N#Cc1cc(-c2cc3cc(-c4ccc(CC(=O)Nc5cc(C(F)(F)F)ccn5)cc4F)cnc3[nH]2)ccn1 [Compound P-0194, 2-[4-[2-(2-cyano-4-pyridyl)-1H-pyrrolo[2,3-b]pyridin-5-yl]-3-fluoro-phenyl]-N-[4-(trifluoromethyl)-2-pyridyl]acetamide]
IC50 [1]: 0.0001 to 10 µM
GI50 [2]: 0.0001 to 10 µM

Cn1cc(Nc2ncc(-c3ccc(CC(=O)Nc4cnnc(Cl)c4)cc3)cn2)cn1 [Compound P-0151, N-(6-chloropyridazin-4-yl)-2-[4-[2-[(1-methylpyrazol-4-yl)amino]pyrimidin-5-yl]phenyl]acetamide]
IC50 [1]: 0.0001 to 10 µM
GI50 [2]: 0.0001 to 10 µM

Cn1cc(Nc2ncc(-c3ccc(CC(=O)Nc4ccc(C(F)(F)F)c(F)c4)cc3)cn2)cn1 [Compound P-0142, N-[3-fluoro-4-(trifluoromethyl)phenyl]-2-[4-[2-[(1-methylpyrazol-4-yl)amino]pyrimidin-5-yl]phenyl]acetamide]
IC50 [1]: 0.0001 to 10 µM
GI50 [2]: 0.0001 to 10 µM

COc1ncc(NC(=O)Cc2cc(F)c(-c3cnc4[nH]nc(C)c4c3)cc2F)cc1C(F)(F)F [Compound P-0176, 2-[2,5-difluoro-4-(3-methyl-1H-pyrazolo[3,4-b]pyridin-5-yl)phenyl]-N-[6-methoxy-5-(trifluoromethyl)-3-pyridyl]acetamide]
IC50 [1]: 0.0001 to 10 µM
GI50 [2]: 0.0001 to 10 µM

Cn1cnc(Nc2ncc(-c3ccc(CC(=O)Nc4cncc(C(F)(F)F)c4)cc3)cn2)c1 [Compound P-0167]
IC50 [1]: 0.0001 to 10 µM
GI50 [2]: 0.0001 to 10 µM

Cn1cc(Nc2ncc(-c3ccc(CC(=O)Nc4cc(Cl)c(C5CC5)cn4)c(F)c3)cn2)cn1 [Compound P-0107, N-(4-chloro-5-cyclopropyl-2-pyridyl)-2-[2-fluoro-4-[2-[(1-methylpyrazol-4-yl)amino]pyrimidin-5-yl]phenyl]acetamide]
IC50 [1]: 0.0001 to 10 µM
GI50 [2]: 0.0001 to 10 µM

COCCn1cc(Nc2ncc(-c3ccc(CC(=O)Nc4cnc(C)c(C(F)(F)F)c4)cc3)cn2)cn1 [Compound P-0179, 2-[4-[2-[[1-(2-methoxyethyl)pyrazol-4-yl]amino]pyrimidin-5-yl]phenyl]-N-[6-methyl-5-(trifluoromethyl)-3-pyridyl]acetamide]
IC50 [1]: 0.0001 to 10 µM
GI50 [2]: 0.0001 to 10 µM

Cn1cc(Nc2ncc(-c3ccc(CC(=O)Nc4cccc(C(F)(F)F)n4)cc3)cn2)cn1 [Compound P-0152, 2-[4-[2-[(1-methylpyrazol-4-yl)amino]pyrimidin-5-yl]phenyl]-N-[6-(trifluoromethyl)-2-pyridyl]acetamide]
IC50 [1]: 0.0001 to 10 µM
GI50 [2]: 0.0001 to 10 µM

Cn1cc(Nc2ncc(-c3ccc(CC(=O)Nc4ccnc(C(F)(F)F)c4)cc3)cn2)cn1 [Compound P-0134, 2-[4-[2-[(1-methylpyrazol-4-yl)amino]pyrimidin-5-yl]phenyl]-N-[2-(trifluoromethyl)-4-pyridyl]acetamide]
IC50 [1]: 0.0001 to 10 µM
GI50 [2]: 0.0001 to 10 µM

Cn1cc(Nc2ncc(-c3ccc(CC(=O)Nc4ccc(S(C)(=O)=O)cc4)cc3)cn2)cn1 [Compound P-0156, 2-[4-[2-[(1-methylpyrazol-4-yl)amino]pyrimidin-5-yl]phenyl]-N-(4-methylsulfonylphenyl)acetamide]
IC50 [1]: 0.0001 to 10 µM
GI50 [2]: 0.0001 to 10 µM

Cc1ncc(NC(=O)Cc2ccc(-c3cnc(Nc4cnn(C)c4)nc3)cc2)cc1C(F)(F)F [Compound P-0140, 2-[4-[2-[(1-methylpyrazol-4-yl)amino]pyrimidin-5-yl]phenyl]-N-[6-methyl-5-(trifluoromethyl)-3-pyridyl]acetamide]
IC50 [1]: 0.0001 to 10 µM
GI50 [2]: 0.0001 to 10 µM

O=C(Cc1ccc(-c2cnc3[nH]c(-c4ccnc(N5CCOCC5)c4)cc3c2)cn1)Nc1ccnc(C(F)(F)F)c1 [Compound P-0181, 2-[5-[2-(2-morpholino-4-pyridyl)-1H-pyrrolo[2,3-b]pyridin-5-yl]-2-pyridyl]-N-[2-(trifluoromethyl)-4-pyridyl]acetamide]
IC50 [1]: 0.0001 to 10 µM
GI50 [2]: 0.0001 to 10 µM

O=C(Cc1ccc(-c2cnc3[nH]c(-c4ccc(N5CCOCC5)nc4)cc3c2)c(F)c1)Nc1cc(C(F)(F)F)ccn1 [Compound P-0192, 2-[3-fluoro-4-[2-(6-morpholino-3-pyridyl)-1H-pyrrolo[2,3-b]pyridin-5-yl]phenyl]-N-[4-(trifluoromethyl)-2-pyridyl]acetamide]
IC50 [1]: 0.0001 to 10 µM
GI50 [2]: 0.0001 to 10 µM

N#Cc1cc(-c2cc3cc(-c4ccc(CC(=O)Nc5cncc(C(F)(F)F)c5)cc4F)cnc3[nH]2)ccn1 [Compound P-0199, 2-[4-[2-(2-cyano-4-pyridyl)-1H-pyrrolo[2,3-b]pyridin-5-yl]-3-fluoro-phenyl]-N-[5-(trifluoromethyl)-3-pyridyl]acetamide]
IC50 [1]: 0.0001 to 10 µM
GI50 [2]: 0.0001 to 10 µM

Cn1cc(Nc2ncc(-c3ccc(CC(=O)Nc4cc(Cl)c(C5CC5)cn4)cc3)cn2)cn1 [Compound P-0164, N-(4-chloro-5-cyclopropyl-2-pyridyl)-2-[4-[2-[(1-methylpyrazol-4-yl)amino]pyrimidin-5-yl]phenyl]acetamide]
IC50 [1]: 0.0001 to 10 µM
GI50 [2]: 0.0001 to 10 µM

COc1ncc(NC(=O)Cc2ccc(-c3cnc(Nc4cnn(C)c4)nc3)cc2)cc1C(F)(F)F [Compound P-0138, N-[6-methoxy-5-(trifluoromethyl)-3-pyridyl]-2-[4-[2-[(1-methylpyrazol-4-yl)amino]pyrimidin-5-yl]phenyl]acetamide]
IC50 [1]: 0.0001 to 10 µM
GI50 [2]: 0.0001 to 10 µM

Cn1cc(Nc2ncc(-c3ccc(CC(=O)Nc4ccc(C(C)(C)C#N)nc4)c(F)c3)cn2)cn1 [Compound P-0108, N-[6-(1-cyano-1-methyl-ethyl)-3-pyridyl]-2-[2-fluoro-4-[2-[(1-methylpyrazol-4-yl)amino]pyrimidin-5-yl]phenyl]acetamide]
IC50 [1]: 0.0001 to 10 µM
GI50 [2]: 0.0001 to 10 µM

Cn1cnc(Nc2ncc(-c3ccc(CC(=O)Nc4cc(C(C)(F)F)ccn4)c(F)c3)cn2)c1 [Compound P-0102, N-[4-(1,1-difluoroethyl)-2-pyridyl]-2-[2-fluoro-4-[2-[(1-methylimidazol-4-yl)amino]pyrimidin-5-yl]phenyl]acetamide]
IC50 [1]: 0.0001 to 10 µM
GI50 [2]: 0.0001 to 10 µM

COc1ncc(NC(=O)Cc2ccc(-c3cnc4[nH]nc(C)c4c3)c(F)c2)cc1C(F)(F)F [Compound P-0174, 2-[3-fluoro-4-(3-methyl-1H-pyrazolo[3,4-b]pyridin-5-yl)phenyl]-N-[6-methoxy-5-(trifluoromethyl)-3-pyridyl]acetamide]
IC50 [1]: 0.0001 to 10 µM
GI50 [2]: 0.0001 to 10 µM

Cc1ncc(NC(=O)Cc2cc(F)c(-c3cnc4[nH]nc(C)c4c3)cc2F)cc1C(F)(F)F [Compound P-0175, 2-(2,5-difluoro-4-(3-methyl-1H-pyrazolo[3,4-b]pyridin-5-yl)phenyl)-N-(6-methyl-5-(trifluoromethyl)pyridin-3-yl)acetamide]
IC50 [1]: 0.0001 to 10 µM
GI50 [2]: 0.0001 to 10 µM

Cn1cnc(Nc2ncc(-c3ccc(CC(=O)Nc4cncc(C(C)(F)F)c4)c(F)c3)cn2)c1 [Compound P-0103, N-[5-(1,1-difluoroethyl)-3-pyridyl]-2-[2-fluoro-4-[2-[(1-methylimidazol-4-yl)amino]pyrimidin-5-yl]phenyl]acetamide]
IC50 [1]: 0.0001 to 10 µM
GI50 [2]: 0.0001 to 10 µM
